# Reference: the supplement of paper PMC10307832
# Assays:
# Experiment in all cases: relative viability (nuclei count vs DMSO), 5 days (fraction); higher = more cells survive
# CUDC-101 + Vorinostat = compound: C#Cc1cccc(Nc2ncnc3cc(OC)c(OCCCCCCC(=O)NO)cc23)c1 [CUDC-101] + O=C(CCCCCCC(=O)Nc1ccccc1)NO [Vorinostat] (partner 1 µM)
# In short: (§1)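 Lung cancer cell lines in 1536-well plates got either a single drug or a fixed anchor-drug dose together with five library-drug doses (not always all listed) in √10 steps, by pin tool, on the day after seeding. Nuclei were counted after 5 days, and relative viability is the treated-to-vehicle ratio of nuclei counts. Values are medians of duplicate plates.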
# [1] = compound: C1=CC=C2C(=C1)N=C(S2)C(C#N)C3=NC(=NC=C3)NCCC4=CN=CC=C4 + CC(=O)Nc1cccc(-n2c(=O)n(C3CC3)c(=O)c3c(Nc4ccc(I)cc4F)n(C)c(=O)c(C)c32)c1 [Trametinib] (partner 0.02 µM)
# In short: as §1
# [2] = compound: C1=CC=C2C(=C1)N=C(S2)C(C#N)C3=NC(=NC=C3)NCCC4=CN=CC=C4 + COc1cccc2cc(-c3nc([C@H]4CC[C@H](C(=O)O)CC4)n4ncnc(N)c34)[nH]c12 [OSI-027] (partner 0.5 µM)
# In short: as §1
# Vandetanib + Trametinib = compound: COc1cc2/c(=N/c3ccc(Br)cc3F)nc[nH]c2cc1OCC1CCN(C)CC1 [Vandetanib] + CC(=O)Nc1cccc(-n2c(=O)n(C3CC3)c(=O)c3c(Nc4ccc(I)cc4F)n(C)c(=O)c(C)c32)c1 [Trametinib] (partner 0.02 µM)
# In short: as §1
Cell Line,relative viability (CUDC-101 + Vorinostat; first compound 0.01 µM),relative viability (CUDC-101 + Vorinostat; first compound 0.03162 µM),relative viability (CUDC-101 + Vorinostat; first compound 0.1 µM),relative viability (CUDC-101 + Vorinostat; first compound 0.3162 µM),relative viability (CUDC-101 + Vorinostat; first compound 1 µM),relative viability ([1]; first compound 0.005 µM),relative viability ([1]; first compound 0.01581 µM),relative viability ([1]; first compound 0.05 µM),relative viability ([1]; first compound 0.1581 µM),relative viability ([1]; first compound 0.5 µM),relative viability ([2]; first compound 0.005 µM),relative viability ([2]; first compound 0.01581 µM),relative viability ([2]; first compound 0.05 µM),relative viability ([2]; first compound 0.1581 µM),relative viability ([2]; first compound 0.5 µM),relative viability (Vandetanib + Trametinib; first compound 0.02 µM),relative viability (Vandetanib + Trametinib; first compound 0.06325 µM),relative viability (Vandetanib + Trametinib; first compound 0.2 µM),relative viability (Vandetanib + Trametinib; first compound 0.6325 µM),relative viability (Vandetanib + Trametinib; first compound 2 µM)
NCI-H2170,0.809,0.821,0.77,0.859,0.549,0.623,0.924,0.884,1.04,0.655,0.687,0.653,0.718,0.698,0.706,0.905,0.875,0.931,0.896,0.858
NCI-H2228,0.611,0.575,0.585,0.783,0.526,0.357,0.447,0.512,0.526,0.46,0.404,0.556,0.561,0.578,0.492,0.511,0.386,0.561,0.64,0.28
NCI-H2342,0.737,0.663,0.773,0.685,0.703,0.733,0.89,0.867,0.798,0.844,0.532,0.64,0.569,0.671,0.578,0.823,0.826,0.869,0.851,0.809
NCI-H2347,0.741,0.583,0.631,0.415,0.46,0.282,0.268,0.296,0.3,0.267,0.454,0.394,0.39,0.58,0.408,0.28,0.278,0.254,0.283,0.28
NCI-H2405,1.1,1.04,0.968,0.953,0.568,0.582,0.645,0.63,0.643,0.599,0.666,0.673,0.614,0.695,0.645,0.63,0.458,0.714,0.653,0.616
NCI-H3122,1.04,0.912,0.895,1.01,0.685,0.178,0.238,0.221,0.216,0.197,0.671,0.923,0.895,1.34,0.819,0.208,0.186,0.113,0.259,0.204
PC-3 [JPC-3],0.753,0.691,0.387,0.383,0.335,0.689,–,0.642,0.737,0.636,0.717,0.877,0.771,0.888,0.483,0.682,0.577,0.584,0.513,0.435
PC-14,0.806,0.572,0.137,0.148,0.0543,0.411,0.933,0.633,0.948,0.809,0.606,0.923,0.669,1.22,0.729,0.725,0.51,0.071,0.109,0.0866
RERF-LC-KJ,0.732,0.783,0.612,0.659,0.439,0.916,0.877,0.911,0.961,0.688,0.645,0.564,0.511,0.63,0.562,0.808,0.933,0.528,0.831,0.688
SK-LU-1,0.784,0.884,0.843,0.829,0.567,0.461,0.437,0.413,0.532,0.474,0.278,0.374,0.349,0.345,0.297,0.453,0.344,0.562,0.567,0.458
SK-MES-1,1.04,1.04,1.1,1.12,0.915,0.576,0.555,0.531,0.604,0.629,0.483,0.659,0.48,0.722,0.558,0.593,0.464,0.304,0.405,0.357
SW 900,0.48,0.569,0.31,0.49,0.217,0.586,0.806,0.584,1.06,0.648,0.48,0.448,0.506,0.763,0.424,0.654,0.71,–,0.673,0.549
SW 1573,0.979,0.689,0.675,0.773,0.468,0.615,0.587,0.479,0.718,0.499,0.497,0.54,–,0.923,0.557,0.59,0.568,–,0.598,0.615
